Test results published in patent US11299518B2, “Fusion respiratory syncytial virus inhibitors and use thereof” (priority 2016, dated 2022).
Bridge positions count the residues as written; N and C are the ends. Square brackets hold non-standard residues; d marks the D form. Peptide text beside a SMILES is read from it. tBuAla = CC(C)(C)C[C@H](N)C(=O)O; Cha = N[C@@H](CC1CCCCC1)C(=O)O; R5 = C=CCCC[C@@](C)(N)C(=O)O; S5 = C=CCCC[C@](C)(N)C(=O)O

Legend:
hRSV = conditions: literature; cited from earlier work
bRSV = conditions: literature; cited from earlier work
RSV-mCherry = type: cell-based, HRSV
Experimental: The inhibitory activity of the peptides of the invention was assessed in HEp-2 cells as described below:
A mCherry-expressing virus recently developed (Rameix-Welti et al., 2014, Nat. Commun., 5:5104) was used to avoid the cumbersome manipulations required with the GFP-expressing virus.
HEp-2 cells were seeded at 5×10^4 cells per well in 96 wells plate the day before the infection. Peptides were 2-fold serially diluted in DMSO (11 dilutions), then further diluted in MEM medium and pre-incubated for 15-20 minutes with 0.2 MOI of RSV-mCherry (Rameix-Welti et al., 2014, supra). Following the washing of Hep-2 cells with MEM without phenol red medium, the cells were incubated with the virus/peptide mixtures for a period of 1 h30-2 h. The cells were washed and further incubated in MEM media containing fetal bovine serum and the same concentration of peptide that was used during the infection step. Plates were incubated 48 h at 37° C. and the mCherry fluorescence was measured using a spectrofluorometer (Tecan infinite M200PRO) with excitation and emission wavelengths of 580 and 620 nm, respectively (expressed in relative fluorescence units RFU). Non-infected HEp-2 cells were used as standards for fluorescence background levels. Each experiment was performed in duplicate and repeated at least twice.

chymotrypsin = biological target: T1, chymotrypsin (Bos taurus, UniProt P00766); test: Proteolytic stability assay, chymotrypsin; type: in vitro ADME; conditions: chymotrypsin (isolated protease); 100 mM Tris-HCl pH 8.0, 10 mM CaCl2, 25° C., LC-MS; read-out: t1/2 (min) Chymotrypsin
T1 construct: purchased Thermo Fisher Scientific
Experimental: (§1) The compounds according to the invention are tested for their stability in a proteolytic stability assay as described below which is an important parameter to assess for the development of peptide therapeutics. Peptides of the invention 4bb, 4ca, 4a and their unstapled comparative peptide 4, as well as both SAH-RSVFBD isomers were treated with chymotrypsin and trypsin, and analysed by LC/MS to quantify the reaction products over time.
(§2) In vitro proteolytic degradation was measured via LC-MS using an Agilent Infinity 1280 UHPLC system coupled to an Agilent quadruple-time-of-flight (QTOF) 6530 with an Agilent Jet Stream electrospray ionisation (AJS ESI) source (all Agilent Technologies, Waldbronn, Germany). 5 μl of digested sample were injected onto a C18 column (Zorbax Eclipse Plus RRHD, 1.8 μm, 2.1*100 mm, Agilent Technologies, Waldbronn, Germany) equilibrated with solvent A and eluted with a flow rate of 0.4 ml/min over a 5-95% gradient of solvent B in 5 minutes, followed by 1.5 minutes at 95% and 0.5 minutes post-time where solvent A was 95% water, 5% acetonitrile with 0.2% formic acid and solvent B was 5% water, 95% acetonitrile with 0.2% formic acid. The AJS ESI source was operated with a capillary voltage of 4000V and a nozzle voltage of 600V with a drying gas temperature of 325° C. and flow rate of 10 l/min, nebulising gas pressure of 20 psi, and a sheath gas temperature of 300° C. and flow rate of 11l/min. Mass spectra were acquired in the positive ion mode from 100-3200 m/z at a rate of 1 scan per second in extended dynamic range (2 GHz) mode. The fragmentor, skimmer and octopole Radio Frequency voltages were set to 200, 60 and 750 V respectively. Data were acquired and analysed with Agilent MassHunter Workstation (version B.05).
(§3) Peptide digestion was performed as it follows: 10 μl of peptide at 0.29 mM in 50/50 acetonitrile/water were dissolved in 990 μl 100 mM Tris-HCl, pH 8.0 with 10 mM CaCl2. Following measurement of the undigested (to) sample, 10 μl of chymotrypsin at 50 μg/ml in 100 mM Tris-HCl, pH 8.0 with 10 mM CaCl2 were added and the sample was vortexed and placed immediately in the autosampler, set to 25° C. Trypsin digestion was performed as with chymotrypsin except that the buffer was in 50 mM Tris-HCl, pH8. Chymotrypsin and trypsin were purchased from Thermo Fisher Scientific.
(§4) The level of intact peptide was quantified by serial injection over time. Integration of the intact peptide compound chromatogram was performed using the Agilent Molecular Feature Extraction (MFE) algorithm. A plot of the intact peptide MFE peak area over time gave an exponential decay curve, from which the half-life was determined using MatLab […].

trypsin = test: Proteolytic stability assay, trypsin; type: in vitro ADME; conditions: trypsin (isolated protease), pH 8; 50 mM Tris-HCl pH8, 25° C., LC-MS; read-out: t1/2 (min) Trypsin
Experimental: as §1, §2, §3, §4

[1] = CD spectroscopy, percentage of helicity; type: physicochemical; conditions: CD at 222 nm, 10 mM phosphate buffer pH 7.5, 50 μM peptide, 25° C.
Experimental: The secondary structure of the peptides was then characterized by circular dichroism (DC) as described below.
The circular dichroism spectra were acquired on a Jasco J-810 and on a Chirascan spectropolarimeter. The samples were prepared in 10 mM phosphate buffer, pH 7.5, at a peptide concentration of 50 μM. Data were recorded at 25° C. by stepscan from 180 nm to 260 nm in a 0.1 cm pathlength quartz cell using 0.2 nm wavelength increments, 1 nm bandwidth and a response time of 0.5 sec. Each spectrum was an average of three measurements and was subtracted from buffer baseline. The data were converted to per residue molar ellipticity units [θ] (deg·cm2·dmol−1·residue−1) and smoothed using the Igor software. The percentage of helicity was calculated as it follows:
[formula] whereby CD222=molar ellipticity at 222 nm in [mdeg], N=number of amino acids in the peptide and C=peptide molar concentration [mol/l].

circular dichroism = conditions: 10 mM phosphate; pH 7.5; 25 °C; 50 uM

Row | SMILES | % helicity [1] | helicity (circular dichroism) | further results
1 | O=c1n(Cc2nc3ccccc3n2CCCCO)c2cnccc2n1C1CC1 [BMS-433771] | – | – | activity against hRSV (hRSV): active; activity against bRSV (bRSV): active
2 | CC[C@H](C)[C@H](NC(=O)[C@H](Cc1ccccc1)NC(=O)[C@H](C)NC(=O)[C@H](CC(C)C)NC(=O)[C@H](CO)NC(=O)[C@H](CCC(N)=O)NC(=O)[C@H](CCC(=O)O)NC(C)=O)C(=O)N[C@@H](CCCNC(=N)N)C(=O)N[C@@H](CCCCN)C(=O)N[C@@H](CO)C(=O)N[C@@H](CC(=O)O)C(=O)N[C@@]1(C)CCCC=CCCC[C@@](C)(C(=O)N[C@H](C(N)=O)C(C)C)NC(=O)[C@H](Cc2c[nH]cn2)NC(=O)[C@H](CC(C)C)NC(=O)[C@H](CC(C)C)NC1=O [Peptide 3c, reference compound] (Ac-EQSLAFIRKSD[S5]LLH[S5]V-NH2; staple 12-16) | – | – | inhibitory activity in HEp-2 cells (RSV-mCherry; RSV-mCherry): inactive
3 | CC[C@H](C)[C@H](NC(=O)[C@H](CCCCN)NC(=O)[C@H](CCC(=O)O)NC(C)=O)C(=O)N[C@@H](CC(N)=O)C(=O)N[C@@H](CCC(N)=O)C(=O)N[C@@H](CO)C(=O)N[C@@H](CC(C)C)C(=O)N[C@@]1(C)CCCC=CCCC[C@@](C)(C(=O)N[C@@H](CO)C(=O)N[C@@H](CC(=O)O)C(=O)N[C@@]2(C)CCCC=CCCC[C@@](C)(C(=O)N[C@H](C(N)=O)C(C)C)NC(=O)[C@H](Cc3c[nH]cn3)NC(=O)[C@H](CC(C)C)NC(=O)[C@H](CC(C)C)NC2=O)NC(=O)[C@H](CCCNC(=N)N)NC(=O)[C@H]([C@@H](C)CC)NC(=O)[C@H](Cc2ccccc2)NC1=O [Peptide 4a, EKINQSL Xaa8 FIR Xaa12 SD Xaa15 LLH Xaa19 V] (Ac-EKINQSL[S5]FIR[S5]SD[S5]LLH[S5]V-NH2; staple 8-12, 15-19) | 23.5% | – | half-life at 2.9 µM (chymotrypsin): 4480 min; half-life at 2.9 µM (trypsin): 76 min
4 | CC[C@H](C)[C@H](NC(=O)[C@H](CCCCN)NC(=O)[C@H](CCC(=O)O)NC(C)=O)C(=O)N[C@@]1(C)CCCC=CCCC[C@@](C)(C(=O)N[C@@H](Cc2ccccc2)C(=O)N[C@H](C(=O)N[C@@]2(C)CCCC=CCCC[C@@](C)(C(=O)N[C@@H](CC(C)C)C(=O)N[C@@H](CC(C)C)C(=O)N[C@@H](Cc3c[nH]cn3)C(=O)N[C@@H](CC(N)=O)C(=O)N[C@H](C(N)=O)C(C)C)NC(=O)[C@H](CC(=O)O)NC(=O)[C@H](CO)NC(=O)[C@H](CCCCN)NC2=O)[C@@H](C)CC)NC(=O)[C@H](CC(C)C)NC(=O)[C@H](CO)NC(=O)[C@H](CCC(N)=O)NC1=O [Peptide 4bb, EKI Xaa4 QSL Xaa8 FI Xaa11 KSD Xaa15 LLHNV] (Ac-EKI[S5]QSL[S5]FI[S5]KSD[S5]LLHNV-NH2; staple 4-8, 11-15) | 52.9% | – | half-life at 2.9 µM (chymotrypsin): 3010 min; half-life at 2.9 µM (trypsin): 20 min
5 | CC[C@H](C)[C@@H]1NC(=O)[C@H](Cc2ccccc2)NC(=O)[C@@](C)(NC(=O)[C@H](CC(C)C)NC(=O)[C@H](CO)NC(=O)[C@]2(C)CCCC=CCCC[C@@](C)(NC(=O)[C@H](CCC(=O)O)NC(C)=O)C(=O)N[C@@H]([C@@H](C)CC)C(=O)N[C@@H](CC(N)=O)C(=O)N2)CCCC=CCCC[C@@](C)(C(=O)N[C@@H](CO)C(=O)N[C@@H](CC(=O)O)C(=O)N[C@@H](CCC(=O)O)C(=O)N[C@@H](CC(C)(C)C)C(=O)N[C@@H](CC(C)C)C(=O)N[C@@H](Cc2c[nH]cn2)C(=O)N[C@@H](CC(N)=O)C(=O)N[C@H](C(N)=O)C(C)C)NC(=O)[C@H](CCCNC(=N)N)NC1=O [Peptide 4ca-var4, E Xaa2 IN Xaa5 SL Xaa8 FIR Xaa12 SDE Xaa16LHNV] (Ac-E[R5]IN[S5]SL[S5]FIR[S5]SDE[tBuAla]LHNV-NH2; staple 2-5, 8-12) | 98.4% | 98.4% | EC50 (RSV-mCherry; HEp-2 cells, 0.2 MOI RSV-mCherry, 48 h): 0.2 ± 0.05 µM
6 | CC[C@H](C)[C@@H]1NC(=O)[C@H](Cc2ccccc2)NC(=O)[C@@](C)(NC(=O)[C@H](CC(C)C)NC(=O)[C@H](CO)NC(=O)[C@]2(C)CCCC=CCCC[C@@](C)(NC(=O)[C@H](CCC(=O)O)NC(C)=O)C(=O)N[C@@H]([C@@H](C)CC)C(=O)N[C@@H](CCCNC(=N)N)C(=O)N2)CCCC=CCCC[C@@](C)(C(=O)N[C@@H](CO)C(=O)N[C@@H](CC(=O)O)C(=O)N[C@@H](CCC(=O)O)C(=O)N[C@@H](CC(C)(C)C)C(=O)N[C@@H](CC(C)C)C(=O)N[C@@H](Cc2c[nH]cn2)C(=O)N[C@@H](CC(N)=O)C(=O)N[C@H](C(N)=O)C(C)C)NC(=O)[C@H](CCCNC(=N)N)NC1=O [Peptide 4ca-var6, E Xaa2 IR Xaa5 SL Xaa8 FIR Xaa12 SDE Xaa16LHNV] (Ac-E[R5]IR[S5]SL[S5]FIR[S5]SDE[tBuAla]LHNV-NH2; staple 2-5, 8-12) | 85.6% | 85.6% | –
7 | CC[C@H](C)[C@@H]1NC(=O)[C@H](Cc2ccccc2)NC(=O)[C@@](C)(NC(=O)[C@H](CC(C)C)NC(=O)[C@H](CO)NC(=O)[C@]2(C)CCCC=CCCC[C@@](C)(NC(=O)[C@H](CCC(=O)O)NC(C)=O)C(=O)N[C@@H]([C@@H](C)CC)C(=O)N[C@@H](CC(N)=O)C(=O)N2)CCCC=CCCC[C@@](C)(C(=O)N[C@@H](CO)C(=O)N[C@@H](CC(=O)O)C(=O)N[C@@H](CCC(=O)O)C(=O)N[C@@H](CC2CCCCC2)C(=O)N[C@@H](CC(C)C)C(=O)N[C@@H](Cc2c[nH]cn2)C(=O)N[C@@H](CC(N)=O)C(=O)N[C@H](C(N)=O)C(C)C)NC(=O)[C@H](CCCNC(=N)N)NC1=O [Peptide 4ca-var7, E Xaa2 IN Xaa5 SL Xaa8 FIR Xaa12 SDE Xaa16LHNV] (Ac-E[R5]IN[S5]SL[S5]FIR[S5]SDE[Cha]LHNV-NH2; staple 2-5, 8-12) | 91.4% | 91.4% | –
8 | CC[C@H](C)[C@@H]1NC(=O)[C@H](Cc2ccccc2)NC(=O)[C@@](C)(NC(=O)[C@H](CC(C)C)NC(=O)[C@H](CO)NC(=O)[C@]2(C)CCCC=CCCC[C@@](C)(NC(=O)[C@H](CCC(=O)O)NC(C)=O)C(=O)N[C@@H]([C@@H](C)CC)C(=O)N[C@@H](CC(N)=O)C(=O)N2)CCCC=CCCC[C@@](C)(C(=O)N[C@@H](CO)C(=O)N[C@@H](CC(=O)O)C(=O)N[C@@H](CCC(=O)O)C(=O)N[C@@H](CC(C)(C)C)C(=O)N[C@@H](CC(C)C)C(=O)N[C@@H](Cc2c[nH]cn2)C(N)=O)NC(=O)[C@H](CCCNC(=N)N)NC1=O [Peptide 4ca-var8, E Xaa2 IN Xaa5 SL Xaa8 FIR Xaa12 SDE Xaa16LH] (Ac-E[R5]IN[S5]SL[S5]FIR[S5]SDE[tBuAla]LH-NH2; staple 2-5, 8-12) | 75.8% | 75.8% | –
9 | Cc1ccc(CCCO)c(NCc2ccc3nc(NCCCN4CCOCC4)n(Cc4nc(C)ccc4O)c3c2)c1 [TMC-353121] | – | – | activity against hRSV (hRSV): active; activity against bRSV (bRSV): active
